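The compound was tested at five concentrations on cells cultured in 96-well plates, with a 48-hour exposure period. Definition used: TGI = concentration required for complete inhibition of growth.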
Tests used:
Assay in all cases: NCI anticancer screen, dose series, 48 h
786-0 renal = system: 786-0 renal
A498 renal = system: A498 renal
EKVX NSCLC = system: EKVX NSCLC
IGROV1 ovarian = system: IGROV1 ovarian
K-562 leukemia = system: K-562 leukemia
KM12 colon = system: KM12 colon
LOX IMVI melanoma = system: LOX IMVI melanoma
NCI-H226 lung = system: NCI-H226 lung
NCI-H23 lung = system: NCI-H23 lung
SF-539 CNS = system: SF-539 CNS
SNB-75 CNS = system: SNB-75 CNS
SW-620 colon = system: SW-620 colon
TK-10 renal = system: TK-10 renal
DU-145 prostate = system: DU-145 prostate
HOP-92 NSCLC = system: HOP-92 NSCLC
MCF7 breast = system: MCF7 breast
MDA-N = system: MDA-N
PC-3 prostate = system: PC-3 prostate
HS 578T breast = system: HS 578T breast

Row | SMILES | TGI (786-0 renal) [µM] | TGI (A498 renal) [µM] | TGI (EKVX NSCLC) [µM] | TGI (IGROV1 ovarian) [µM] | TGI (K-562 leukemia) [µM] | TGI (KM12 colon) [µM] | TGI (LOX IMVI melanoma) [µM] | TGI (NCI-H226 lung) [µM] | TGI (NCI-H23 lung) [µM] | TGI (SF-539 CNS) [µM] | TGI (SNB-75 CNS) [µM] | TGI (SW-620 colon) [µM] | TGI (TK-10 renal) [µM] | TGI (DU-145 prostate) [µM] | TGI (HOP-92 NSCLC) [µM] | TGI (MCF7 breast) [µM] | TGI (MDA-N) [µM] | TGI (PC-3 prostate) [µM] | TGI (HS 578T breast) [µM]
1 | COc1cccc2c1[C@H]1OC(=O)NC1CCCCC2 (stereo partly specified) | > 100 | > 100 | > 100 | > 100 | > 100 | > 100 | > 100 | > 100 | > 100 | > 100 | > 100 | > 100 | > 100 | – | – | – | – | – | –
2 | CCCCC1Cc2cc(OC)ccc2-c2n1c1cc(OC)ccc1[n+]2C (stereo unspecified) (tested in a mixture with another compound) | > 100 | 83.2 | 20.2 | 6.61 | > 62.8 | 10.7 | 14.3 | 24.2 | > 39.9 | > 44.9 | 87.6 | > 55.5 | 31.9 | > 64.1 | 7.02 | 15.8 | 11.1 | 30.4 | –
3 | O[C@]12c3ccccc3C1CCCCC2N1CCOCC1 (stereo partly specified) | > 100 | – | > 100 | – | > 100 | > 100 | > 100 | > 100 | > 100 | – | > 100 | > 100 | > 100 | – | – | – | – | – | –
4 | N=C(N)c1ccc(N=Nc2c(O)ccc3cc(O)ccc23)cc1 | > 100 | – | > 100 | > 100 | > 100 | > 100 | – | > 100 | – | > 100 | – | > 100 | > 100 | – | > 100 | > 100 | – | > 100 | > 100
5 | CC(=O)c1sc2c(c1O)c(=O)n(-c1ccccc1)c(=S)n2-c1ccccc1 | > 100 | – | – | > 100 | > 100 | > 100 | > 100 | > 100 | > 100 | – | > 100 | > 100 | > 100 | > 100 | > 100 | > 100 | > 100 | – | > 100
6 | O=C(NN1C(=O)C(Cl)C1c1c(O)ccc2ccccc12)c1ccccc1O (stereo unspecified) | > 100 | > 100 | – | > 100 | > 100 | > 100 | > 100 | > 100 | > 100 | > 100 | > 100 | – | > 100 | – | – | – | – | – | –
7 | CC1(CCCCO)C=CC(S(=O)(=O)c2ccccc2)CC1 (stereo unspecified) | 14.8 | 21.7 | 18 | 12.1 | 11.6 | 8.45 | 3.65 | 9.03 | 17.8 | 20.2 | 13.3 | 20.6 | 19.1 | 17.7 | 7.04 | 11.3 | 14.4 | 15.1 | –
8 | CSc1nc(C)cc(=O)n1C1OC(COC(C)=O)C(OC(C)=O)C(OC(C)=O)C1OC(C)=O (stereo unspecified) | > 100 | > 100 | > 100 | > 100 | > 100 | > 100 | > 100 | > 100 | > 100 | – | > 100 | > 100 | > 100 | – | – | – | – | – | –
9 | CC(=O)O[C@H]1C[C@@H](OC(C)=O)[C@@](C)(O)[C@@H]2[C@@H](OC(C)=O)[C@@]3(O)[C@H](/C=C(/CCl)[C@H]4O[C@H]4[C@@H](OC(C)=O)[C@@]12C)OC(=O)[C@@H]3C | > 25 | > 25 | > 25 | > 25 | > 25 | > 25 | > 25 | > 25 | > 25 | – | > 25 | > 25 | > 25 | > 25 | > 25 | – | > 25 | > 25 | > 25
10 | CCOC(=O)C(C)(Cc1ccc(O)cn1)NC(=O)c1ccccc1 (stereo unspecified) | > 100 | – | > 100 | > 100 | > 100 | > 100 | > 100 | > 100 | > 100 | > 100 | > 100 | > 100 | > 100 | > 100 | > 100 | – | > 100 | > 100 | > 100
11 | Nc1ncnc2c1ncn2CCOC(c1ccccc1)P(=O)(O)O (stereo unspecified) | > 100 | > 100 | > 100 | > 100 | – | > 100 | > 100 | > 100 | > 100 | > 100 | > 100 | > 100 | > 100 | – | – | – | – | – | –
12 | Nc1c(C(=O)c2ccccc2)nnc2ccccc12 | > 100 | – | > 100 | > 100 | > 100 | 67.7 | > 100 | > 100 | > 100 | 87.3 | – | > 100 | 54.7 | 69.9 | 48.7 | 62.6 | – | 59.6 | –

Source: PubChem BioAssay (NCI)
